Test results: patent US11730405B2, “Body fluid leakage detection aqueous composition” (MAGLE CHEMOSWED HOLDING AB, priority 2017, dated 2023)
Values joined by “and” are separate entries in the source; they are usually repeats but may differ in a detail not shown here. Identical values can stand only once. Like-named read-outs stand apart in the source and are kept apart here.

How the values were obtained:
[1] = Pharmacokinetics of BTB in drainage fluid and portal venous blood after abdominal application of PAN indicator hydrogel (HPLC-MS); format: in vivo, domestic pigs (Sus Scrofa Domestica); conditions: for concentration at 1 day / concentration at 2 day / concentration at 0 min / concentration at 1 min / concentration at 5 min / concentration at 30 min / concentration at 60 min / concentration at 120 min: pig, other: abdominal application at the pancreatic surgery field; for concentration at 5 min: Min 5, mean of animals; for concentration at 30 min: Min 30, mean of animals
Experimental: (§1) PAN toxicology was evaluated by analyzing in vivo pharmacokinetics of its degradation products over 48 hours. Additionally, acute local tissue injury caused by the indicator within minutes as well as macroscopic intra-abdominal side effects and local histological of the device over 8 days were assessed. Finally, cytotoxicity of its degradation products on pancreatic target cells was analyzed.
For toxicological evaluation of PAN indicator hydrogel pharmacokinetics studies were conducted measuring concentrations of degradation products of the device in body fluid components over time consequently to abdominal application in pancreatic surgery. Blood from portal vein and peritoneal fluid from intraoperative situs or postoperative drainages were sampled. Time points of sampling in relation to indicator application were: 0 min (baseline before indicator application), 1, 5, 30, 60, and 120 min, 1st and 2nd postoperative day. Due to its composition with water and degradable components starch microspheres, only further constituent bromothymol blue (BTB) needed to be evaluated. It should be evaluated if and how much BTB stays in the organism after application at the pancreatic surgery field, gets resorbed to portal venous circulation and passes liver metabolism to reach central venous circulation. Thus, samples of body were collected at the different body compartments over time as described above. Due to expected extremely small BTB-amounts to be measured the very sensitive detection method High Pressure Liquid Chromatography-Mass Spectrometry (HPLC-MS) was used.

[2] = cited from earlier work
pancreatic target cells = experiment: Cytotoxicity cell culture assay (resazurin to resofurin fluorescence photometry); format: cell-based
Experimental: as §1
Cytotoxicity by PAN was further evaluated in a cell culture assay. Metabolic activity of viable cells was evaluated by fluorescence photometry of metabolized resofurin from resazurin after incubation with increasing amount of BTB. PAN indicator hydrogels contain BTB at a concentration of almost 0.5 mg/ml. Thus BTB-solutions with concentrations of 0.5 mg/ml, 1 mg/ml, 1.5 mg/ml, and 5.5 mg/ml, respectively were tested. Cytotoxicity is defined as cell viability less than 70%.

[3] = drainage fluid (peritoneal fluid), pig drainage fluid, read-out: Drainage BTB-Concentration, Mean
[4] = portal venous blood, pig portal venous blood, read-out: Portal Venous Blood BTB-Concentration, Mean

Compound: Cc1c(C2(c3cc(C(C)C)c(O)c(Br)c3C)OS(=O)(=O)c3ccccc32)cc(C(C)C)c(O)c1Br [BTB, bromothymol blue]
- Drainage BTB-Concentration ([1]; pig drainage fluid, Day 1 (1st postoperative day), individual animals Tox 1-4): < 20 ng/mL and 32.1 ng/mL and 18.9 ng/mL and 14.4 ng/mL and 2.98 ng/mL
- Drainage BTB-Concentration ([1]; pig drainage fluid, Day 2 (2nd postoperative day), individual animals Tox 1-4): no detectable amount and 0 ng/ml
- Drainage BTB-Concentration ([1]; pig drainage fluid, Min 0 (baseline before indicator application), individual animals Tox 1-4): 0 ng/ml (3×) and 7.44 ng/ml
- Drainage BTB-Concentration ([1]; pig drainage fluid, Min 1 after indicator application, individual animals Tox 1-4): 2060 ng/mL and 9220 ng/mL and 3600 ng/mL and 2010 ng/mL
- Drainage BTB-Concentration ([1]; pig drainage fluid, Min 5, individual animals Tox 1-4): 7650 ng/mL and 389 ng/mL and 2560 ng/mL and 2070 ng/mL
- Drainage BTB-Concentration ([1]; pig drainage fluid, Min 30, individual animals Tox 1-4): 3280 ng/mL and 10.7 ng/mL and 1220 ng/mL and 712 ng/mL
- Drainage BTB-Concentration ([1]; pig drainage fluid, Min 60, individual animals Tox 1-4): 1140 ng/mL and 9.27 ng/mL and 1270 ng/mL and 224 ng/mL
- Drainage BTB-Concentration ([1]; pig drainage fluid, Min 120, individual animals Tox 1-4): 619 ng/mL and 263 ng/mL and 631 ng/mL and 121 ng/mL
- Portal Venous Blood BTB-Concentration ([1]; pig portal venous blood, Day 1, individual animals Tox 1-4): 0 ng/mL
- Portal Venous Blood BTB-Concentration ([1]; pig portal venous blood, Day 2, individual animals Tox 1-4): 0 ng/mL
- Portal Venous Blood BTB-Concentration ([1]; pig portal venous blood, Min 0 (baseline before indicator application), individual animals Tox 1-4): 0 ng/mL
- Portal Venous Blood BTB-Concentration ([1]; pig portal venous blood, Min 1, individual animals Tox 1-4): 0 ng/mL
- Portal Venous Blood BTB-Concentration ([1]; pig portal venous blood, Min 5, individual animals Tox 1-4): 0 ng/ml (3×) and 2.02 ng/ml
- Portal Venous Blood BTB-Concentration ([1]; pig portal venous blood, Min 30, individual animals Tox 1-4): 0 ng/ml (3×) and 2.11 ng/ml
- Portal Venous Blood BTB-Concentration ([1]; pig portal venous blood, Min 60, individual animals Tox 1-4): 0 ng/mL
- Portal Venous Blood BTB-Concentration ([1]; pig portal venous blood, Min 120, individual animals Tox 1-4): 0 ng/mL
- concentration at 1 day ([1]; drainage fluid (peritoneal fluid), pig drainage fluid, Day 1, mean of animals, read-out: Drainage BTB-Concentration, Mean): 17.1 ng/mL
- concentration at 2 day ([1]; drainage fluid (peritoneal fluid), pig drainage fluid, Day 2 (2nd postoperative day), individual animals Tox 1-4, read-out: Drainage BTB-Concentration): 0 ng/mL
- concentration at 2 day ([1]; drainage fluid (peritoneal fluid), pig drainage fluid, Day 2, mean of animals, read-out: Drainage BTB-Concentration, Mean): 0 ng/mL
- concentration at 0 min ([1]; drainage fluid (peritoneal fluid), pig drainage fluid, Min 0 (baseline before indicator application), mean of animals, read-out: Drainage BTB-Concentration, Mean): 1.9 ng/mL
- concentration at 1 min ([1]; drainage fluid (peritoneal fluid), pig drainage fluid, Min 1, mean of animals, read-out: Drainage BTB-Concentration, Mean): 4220 ng/mL
- concentration at 5 min [1, 3]: 3170 ng/mL
- concentration at 30 min [1, 3]: 1310 ng/mL
- concentration at 60 min ([1]; drainage fluid (peritoneal fluid), pig drainage fluid, Min 60, mean of animals, read-out: Drainage BTB-Concentration, Mean): 661 ng/mL
- concentration at 120 min ([1]; drainage fluid (peritoneal fluid), pig drainage fluid, Min 120, mean of animals, read-out: Drainage BTB-Concentration, Mean): 408 ng/mL
- concentration at 1 day ([1]; portal venous blood, pig portal venous blood, Day 1, individual animals Tox 1-4, read-out: Portal Venous Blood BTB-Concentration): 0 ng/mL
- concentration at 1 day ([1]; portal venous blood, pig portal venous blood, Day 1, mean of animals, read-out: Portal Venous Blood BTB-Concentration, Mean): 0 ng/mL
- concentration at 2 day ([1]; portal venous blood, pig portal venous blood, Day 2, individual animals Tox 1-4, read-out: Portal Venous Blood BTB-Concentration): 0 ng/mL
- concentration at 2 day ([1]; portal venous blood, pig portal venous blood, Day 2, mean of animals, read-out: Portal Venous Blood BTB-Concentration, Mean): 0 ng/mL
- concentration at 0 min ([1]; portal venous blood, pig portal venous blood, Min 0 (baseline before indicator application), individual animals Tox 1-4, read-out: Portal Venous Blood BTB-Concentration): 0 ng/mL
- concentration at 0 min ([1]; portal venous blood, pig portal venous blood, Min 0 (baseline before indicator application), mean of animals, read-out: Portal Venous Blood BTB-Concentration, Mean): 0 ng/mL
- concentration at 1 min ([1]; portal venous blood, pig portal venous blood, Min 1, individual animals Tox 1-4, read-out: Portal Venous Blood BTB-Concentration): 0 ng/mL
- concentration at 1 min ([1]; portal venous blood, pig portal venous blood, Min 1, mean of animals, read-out: Portal Venous Blood BTB-Concentration, Mean): 0 ng/mL
- concentration at 5 min [1, 4]: 0.51 ng/mL
- concentration at 30 min [1, 4]: 0.53 ng/mL
- concentration at 60 min ([1]; portal venous blood, pig portal venous blood, Min 60, individual animals Tox 1-4, read-out: Portal Venous Blood BTB-Concentration): 0 ng/mL
- concentration at 60 min ([1]; portal venous blood, pig portal venous blood, Min 60, mean of animals, read-out: Portal Venous Blood BTB-Concentration, Mean): 0 ng/mL
- concentration at 120 min ([1]; portal venous blood, pig portal venous blood, Min 120, individual animals Tox 1-4, read-out: Portal Venous Blood BTB-Concentration): 0 ng/mL
- concentration at 120 min ([1]; portal venous blood, pig portal venous blood, Min 120, mean of animals, read-out: Portal Venous Blood BTB-Concentration, Mean): 0 ng/mL
- BTB in portal venous blood ([1]; pigs, 5 and 30 minutes after application, remaining pigs and timepoints no BTB detected): small amounts of BTB were found only in one pig
- pKa [2]: 7.0
- cytotoxicity (defined as cell viability less than 70%) (pancreatic target cells; 5.5 mg/ml of BTB): slight toxicity
- cytotoxicity (defined as cell viability less than 70%) (pancreatic target cells; 0.5-1.5 mg/ml of BTB): No cytotoxicity
